{"source": "patent US9133206B2", "about": "“Benzodiazepine and pyridodiazepine derivatives” (AbbVie Inc., priority 2010, dated 2015)", "tested_on": "SK-N-SH human neuroblastoma cells", "experiment": "Serum Deprivation/JC-1 Mitochondrial Membrane Potential (MMP) Assay", "format": "cell-based", "conditions": "Homo sapiens, SK-N-SH; for EC50: 18 h, serum deprivation ~18 hours, JC-1 ratio normalized to peak value for 10 μM dimebolin, single curve fit to mean data of n=2-3; for Emax: percent maximal intensity in JC-1 ratio normalized to peak value for 10 μM dimebolin, serum deprivation, read-out: JC-1 max %", "from_the_text": "The method also involves a high-throughput assay using serum-deprivation conditions involving neuronal cells to screen for compounds that increase or preserve mitochondrial membrane potential. Such compounds can be found to aid in rescuing cells from energy-depletion that occurs in several neurodegenerative states. Mitochondrial-mediated apoptosis occurs in response to a wide range of apoptotic stimuli including p^53, c-myc, DNA damage, prooxidants, chemotherapeutic agents, serum starvation and death receptor activation (Lin C—H., Lu Y-Z., Cheng, F-C., Chu L-F. and Hsuch C-M. Bax-regulated mitochondrial-mediated apoptosis is responsible for the in vitro ischemia induced neuronal cell death of Sprague Dawley rat. Neuroscience Lett. 2005, 387, 22-27).\nThus, this stress inducer, serum deprivation, combined with monitoring changes in the mitochondrial membrane potential in a 96-well format allows for the establishment of an efficient high-throughput screen (HTS) in order to evaluate the ability of compounds to increase mitochondrial membrane potential in the presence of stress and preserve health of the cell. Exemplary procedures for conducting such high-throughput assay are provided below.\nSK-N-SH human neuroblastoma cells obtained from American Type Culture Collection (Rockville, Md.) were maintained in the log phase of growth in Minimal Essential Media (MEM), 10% heat inactivated fetal calf serum and 100 units/mL antibiotic-antimycotic (AA). Cells were cultured and maintained in a humidified incubator at 37° C. under 5% CO2 and 95% air. Cells were trypsinized (0.25%) and subcultured every 3 days and used from 15-18 passages. All cell culture supplies were obtained from Invitrogen (Carlsbad, Calif.).\nSK-N-SH cells were plated 2-3 days in advance at a concentration of 50,000 cells/well onto collagen coated black-walled 96 well plates (Becton-Dickinson, Bedford, Mass.) in a total volume of […]. On day of experimental treatment, the media containing serum was aspirated from each well and rinsed once with MEM/1% AA without serum. The cells then were incubated overnight in 100 μL of MEM/1% AA (no serum) with and without dimebolin or novel chemical entities overnight for ˜18 hours. The following day, JC-1 dye (5,5′,6,6′-tetrachloro-1,1′,3,3′-tetraethylbenzimidazolcarbocyanide) was diluted 1:10 into MEM media according to the JC-1 Mitochondrial Membrane Potential Assay Kit: (Cayman Chemical Company, Ann Arbor, Mich.) and then 10 μL of the JC-1 dye solution was added to each well. The plates were centrifuged for 5 minutes at 400×g at room temperature followed by 40 minute incubation at 37° C. The plates were washed twice with 200 μL of provided Assay Buffer followed an addition of 100 μL of Assay Buffer to each well. The plates were read with an excitation and emission of 560 nm and 595 nM for red fluorescence and with an excitation and emission of 485 nm and 535 nM for green fluorescence to determine the final JC-1 value taking the red to green fluorescence ratio. This assay is based on change in mitochondrial membrane potential (MMP) using this lipophilic cationic dye, JC-1, by monitoring the changes in the ratio of red to green fluorescence as the MMP depolarizes. This change in MMP reflects the health of the cell with healthy, viable cells have a high JC-1 ratio and high MMP whereas apoptotic, unhealthy cells have a low JC-1 ratio or low MMP.\nFor the ability of compounds to reverse the stress due to serum deprivation and increase the JC-1 ratio, the percent maximal intensity in JC-1 ratio was normalized to that induced by the peak value for 10 μM dimebolin and plotted against the compound concentration to calculate EC50 values and to control for plate-to-plate variability. Concentration-response data were analyzed using GraphPad Prism (San Diego, Calif.); the EC50 values were derived from a single curve fit to the mean data of n=2-3, in duplicates. […]"}
{"smiles": "c1ccc(CN2CCN3c4ccccc4NCCC3C2)cc1", "note": "(stereo not drawn) [Example 26, 3-benzyl-1,2,3,4,4a,5,6,7-octahydropyrazino[1,2-a][1,5]benzodiazepine]", "values": [{"measurement": "EC50", "value": 3.47, "unit": "µM"}, {"measurement": "Emax", "value": 210, "unit": "%"}]}
{"smiles": "O=C(Cc1ccc(Cl)cc1)N1CCC2CN(Cc3ccccc3)CCN2c2ccccc21", "note": "(stereo not drawn) [Example 27, 1-(3-benzyl-2,3,4,4a,5,6-hexahydropyrazino[1,2-a][1,5]benzodiazepin-7(1H)-yl)-2-(4-chlorophenyl)ethanone]", "values": [{"measurement": "EC50", "value": 4.44, "unit": "µM"}, {"measurement": "Emax", "value": 149, "unit": "%"}]}
{"smiles": "c1ccc(CN2CCN3c4ccccc4CN(Cc4cccnc4)CC3C2)cc1", "note": "(stereo not drawn) [Example 28, 3-benzyl-6-(pyridin-3-ylmethyl)-1,2,3,4,4a,5,6,7-octahydropyrazino[1,2-a][1,4]benzodiazepine]", "values": [{"measurement": "EC50", "value": 9.59, "unit": "µM"}, {"measurement": "Emax", "value": 88, "unit": "%"}]}
{"smiles": "c1ccc(CN2CCN3c4ccccc4CN(Cc4ccccn4)CC3C2)cc1", "note": "(stereo not drawn) [Example 29, 3-benzyl-6-(pyridin-2-ylmethyl)-1,2,3,4,4a,5,6,7-octahydropyrazino[1,2-a][1,4]benzodiazepine]", "values": [{"measurement": "EC50", "value": 4.87, "unit": "µM"}, {"measurement": "Emax", "value": 221, "unit": "%"}]}
{"smiles": "c1ccc(CN2CCN3c4ccccc4CN(Cc4ccncc4)CC3C2)cc1", "note": "(stereo not drawn) [Example 30, 3-benzyl-6-(pyridin-4-ylmethyl)-1,2,3,4,4a,5,6,7-octahydropyrazino[1,2-a][1,4]benzodiazepine]", "values": [{"measurement": "EC50", "value": 3.6, "unit": "µM"}, {"measurement": "Emax", "value": 216, "unit": "%"}]}
{"smiles": "O=C(c1ccc(Br)cc1)N1Cc2ccccc2N2CCN(Cc3ccccc3)CC2C1", "note": "(stereo not drawn) [Example 31, (3-benzyl-1,2,3,4,4a,5-hexahydropyrazino[1,2-a][1,4]benzodiazepin-6(7H)-yl)(4-bromophenyl)methanone]", "values": [{"measurement": "EC50", "value": 1.97, "unit": "µM"}, {"measurement": "Emax", "value": 218, "unit": "%"}]}
{"smiles": "Cc1ccc(CN2Cc3ccccc3N3CCN(Cc4ccccc4)CC3C2)cn1", "note": "(stereo not drawn) [Example 32, 3-benzyl-6-[(6-methylpyridin-3-yl)methyl]-1,2,3,4,4a,5,6,7-octahydropyrazino[1,2-a][1,4]benzodiazepine]", "values": [{"measurement": "EC50", "value": 1.98, "unit": "µM"}, {"measurement": "Emax", "value": 140, "unit": "%"}]}
{"smiles": "c1ccc(CN2CCN3c4ccccc4CN(Cc4cnc5ccccc5c4)CC3C2)cc1", "note": "(stereo not drawn) [Example 33, 3-benzyl-6-(quinolin-3-ylmethyl)-1,2,3,4,4a,5,6,7-octahydropyrazino[1,2-a][1,4]benzodiazepine]", "values": [{"measurement": "EC50", "value": 1.3, "unit": "µM"}, {"measurement": "Emax", "value": 192, "unit": "%"}]}
{"smiles": "Clc1ccc(CN2Cc3ccccc3N3CCN(Cc4ccccc4)CC3C2)cn1", "note": "(stereo not drawn) [Example 34, 3-benzyl-6-[(6-chloropyridin-3-yl)methyl]-1,2,3,4,4a,5,6,7-octahydropyrazino[1,2-a][1,4]benzodiazepine]", "values": [{"measurement": "EC50", "value": 2.94, "unit": "µM"}, {"measurement": "Emax", "value": 213, "unit": "%"}]}
{"smiles": "FC(F)(F)c1ccc(CN2Cc3ccccc3N3CCN(Cc4ccccc4)CC3C2)cn1", "note": "(stereo not drawn) [Example 35, 3-benzyl-6-{[6-(trifluoromethyl)pyridin-3-yl]methyl}-1,2,3,4,4a,5,6,7-octahydropyrazino[1,2-a][1,4]benzodiazepine]", "values": [{"measurement": "EC50", "value": 2.86, "unit": "µM"}, {"measurement": "Emax", "value": 159, "unit": "%"}]}
{"smiles": "c1ccc(CN2CCN3c4ccccc4CN(Cc4ccnc5ccccc45)CC3C2)cc1", "note": "(stereo not drawn) [Example 36, 3-benzyl-6-(quinolin-4-ylmethyl)-1,2,3,4,4a,5,6,7-octahydropyrazino[1,2-a][1,4]benzodiazepine]", "values": [{"measurement": "EC50", "value": 1.05, "unit": "µM"}, {"measurement": "Emax", "value": 137, "unit": "%"}]}
{"smiles": "c1ccc(CN2CCN3c4ccccc4CN(Cc4cncc5ccccc45)CC3C2)cc1", "note": "(stereo not drawn) [Example 37, 3-benzyl-6-(isoquinolin-4-ylmethyl)-1,2,3,4,4a,5,6,7-octahydropyrazino[1,2-a][1,4]benzodiazepine]", "values": [{"measurement": "EC50", "value": 1.21, "unit": "µM"}, {"measurement": "Emax", "value": 172, "unit": "%"}]}
{"smiles": "O=C1NCc2ccccc2N2CCN(Cc3ccc(F)cc3)CC12", "note": "(stereo not drawn) [Example 38, 3-(4-fluorobenzyl)-2,3,4,4a,6,7-hexahydropyrazino[1,2-a][1,4]benzodiazepin-5(1H)-one]", "values": [{"measurement": "EC50", "value": "> 30", "unit": "µM"}, {"measurement": "Emax", "value": 27, "unit": "%"}]}
{"smiles": "Brc1ccc(CN2Cc3ccccc3N3CCN(Cc4ccccc4)CC3C2)cn1", "note": "(stereo not drawn) [Example 39, 3-benzyl-6-[(6-bromopyridin-3-yl)methyl]-1,2,3,4,4a,5,6,7-octahydropyrazino[1,2-a][1,4]benzodiazepine]", "values": [{"measurement": "EC50", "value": 3.69, "unit": "µM"}, {"measurement": "Emax", "value": 200, "unit": "%"}]}
{"smiles": "Fc1ccc(CN2CCN3c4ccccc4CNCC3C2)cc1", "note": "(stereo not drawn) [Example 40, 3-(4-fluorobenzyl)-1,2,3,4,4a,5,6,7-octahydropyrazino[1,2-a][1,4]benzodiazepine]", "values": [{"measurement": "EC50", "value": 11.8, "unit": "µM"}, {"measurement": "Emax", "value": 224, "unit": "%"}]}
{"smiles": "O=C(c1ccc(Br)cc1)N1CCC2CN(Cc3ccccc3)CCN2c2ccccc21", "note": "(stereo not drawn) [Example 41, (3-benzyl-2,3,4,4a,5,6-hexahydropyrazino[1,2-a][1,5]benzodiazepin-7(1H)-yl)(4-bromophenyl)methanone]", "values": [{"measurement": "EC50", "value": 4.67, "unit": "µM"}, {"measurement": "Emax", "value": 186, "unit": "%"}]}
{"smiles": "Brc1ccc(CN2Cc3ccccc3N3CCN(Cc4ccccc4)CC3C2)nc1", "note": "(stereo not drawn) [Example 42, 3-benzyl-6-[(5-bromopyridin-2-yl)methyl]-1,2,3,4,4a,5,6,7-octahydropyrazino[1,2-a][1,4]benzodiazepine]", "values": [{"measurement": "EC50", "value": 3.09, "unit": "µM"}, {"measurement": "Emax", "value": 189, "unit": "%"}]}
{"smiles": "O=C(c1ccncc1)N1CCC2CN(Cc3ccccc3)CCN2c2ccccc21", "note": "(stereo not drawn) [Example 43, (3-benzyl-2,3,4,4a,5,6-hexahydropyrazino[1,2-a][1,5]benzodiazepin-7(1H)-yl)(pyridin-4-yl)methanone]", "values": [{"measurement": "EC50", "value": 6.76, "unit": "µM"}, {"measurement": "Emax", "value": 115, "unit": "%"}]}
{"smiles": "Clc1ccc(CCN2CCC3CN(Cc4ccccc4)CCN3c3ccccc32)cc1", "note": "(stereo not drawn) [Example 44, 3-benzyl-7-[2-(4-chlorophenyl)ethyl]-1,2,3,4,4a,5,6,7-octahydropyrazino[1,2-a][1,5]benzodiazepine]", "values": [{"measurement": "EC50", "value": 3, "unit": "µM"}, {"measurement": "Emax", "value": 291, "unit": "%"}]}
{"smiles": "c1ccc(CN2CCN3c4ccccc4N(Cc4ccccc4)CCC3C2)cc1", "note": "(stereo not drawn) [Example 45, 3,7-dibenzyl-1,2,3,4,4a,5,6,7-octahydropyrazino[1,2-a][1,5]benzodiazepine]", "values": [{"measurement": "EC50", "value": 5.93, "unit": "µM"}, {"measurement": "Emax", "value": 238, "unit": "%"}]}
{"smiles": "Ic1ccc(CN2Cc3ccccc3N3CCN(Cc4ccccc4)CC3C2)cc1", "note": "(stereo not drawn) [Example 46, 3-benzyl-6-(4-iodobenzyl)-1,2,3,4,4a,5,6,7-octahydropyrazino[1,2-a][1,4]benzodiazepine]", "values": [{"measurement": "EC50", "value": 1.87, "unit": "µM"}, {"measurement": "Emax", "value": 192, "unit": "%"}]}
{"smiles": "Brc1ccc(CN2CCC3CN(Cc4ccccc4)CCN3c3ccccc32)cc1", "note": "(stereo not drawn) [Example 47, 3-benzyl-7-(4-bromobenzyl)-1,2,3,4,4a,5,6,7-octahydropyrazino[1,2-a][1,5]benzodiazepine]", "values": [{"measurement": "EC50", "value": 2.78, "unit": "µM"}, {"measurement": "Emax", "value": 273, "unit": "%"}]}
{"smiles": "c1ccc(CN2CCN3c4ccccc4N(Cc4ccncc4)CCC3C2)cc1", "note": "(stereo not drawn) [Example 48, 3-benzyl-7-(pyridin-4-ylmethyl)-1,2,3,4,4a,5,6,7-octahydropyrazino[1,2-a][1,5]benzodiazepine]", "values": [{"measurement": "EC50", "value": 1.84, "unit": "µM"}, {"measurement": "Emax", "value": 125, "unit": "%"}]}
{"smiles": "CN1CCC2CN(Cc3ccccc3)CCN2c2ccccc21", "note": "(stereo not drawn) [Example 49, 3-benzyl-7-methyl-1,2,3,4,4a,5,6,7-octahydropyrazino[1,2-a][1,5]benzodiazepine]", "values": [{"measurement": "EC50", "value": 10.4, "unit": "µM"}, {"measurement": "Emax", "value": 128, "unit": "%"}]}
{"smiles": "Oc1ccc(CN2Cc3ccccc3N3CCN(Cc4ccccc4)CC3C2)cc1", "note": "(stereo not drawn) [Example 50, 4-[(3-benzyl-1,2,3,4,4a,5-hexahydropyrazino[1,2-a][1,4]benzodiazepin-6(7H)-yl)methyl]phenol]", "values": [{"measurement": "EC50", "value": 5.95, "unit": "µM"}, {"measurement": "Emax", "value": 240, "unit": "%"}]}
{"smiles": "O=C1CC2CN(Cc3ccccc3)CCN2c2ncccc2N1", "note": "(stereo not drawn) [Example 51, 9-benzyl-7,7a,8,9,10,11-hexahydropyrazino[1,2-d]pyrido[3,2-b][1,4]diazepin-6(5H)-one]", "values": [{"measurement": "EC50", "value": 8.83, "unit": "µM"}, {"measurement": "Emax", "value": 68, "unit": "%"}]}
{"smiles": "c1ccc(CN2CCN3c4ncccc4NCCC3C2)cc1", "note": "(stereo not drawn) [Example 52, 9-benzyl-5,6,7,7a,8,9,10,11-octahydropyrazino[1,2-d]pyrido[3,2-b][1,4]diazepine]", "values": [{"measurement": "EC50", "value": 5.97, "unit": "µM"}, {"measurement": "Emax", "value": 100, "unit": "%"}]}
